According to US20230416196A1, “DIMER OF BIGUANIDINES AND THEIR THERAPEUTIC USES” (INSTITUT CURIE, priority 2020, published 2023):

Experiments:
[1] = tested on: HMLER CD44^high/CD24^low; assay: Cell viability assay (CellTiter-Blue) on breast cancer stem cell model HMLER CD44high/CD24low; type: cell-based, human
Protocol: (§1) Cell viability assay (IC50). Cell viability assay was carried out by plating 1000 cells/well in 96-well plates. Cells were treated for 72 h in a range between to 25 nM and […] using serial dilutions. The inventors followed the manufacturer's protocol. In brief, CellTiter-Blue® reagent (G8081, Promega) was added after 72 h treatment and cells were incubated for 3 h before recording fluorescence intensities (λex. 560/20 nm; λem. 590/10 nm) using a Perkin Elmer Wallac 1420 Victor2 Microplate Reader.
Cell culture. MCF7 (ATCC) cells, DU-145 (ATCC) cells and FC1245 cells were cultured in Dulbecco's Modified Eagle Medium GlutaMAX (DMEM, ThermoFisher Scientific, 61965059) supplemented with 10% Fetal Bovine Serum (FBS, Gibco, 10270-106) and Penicillin-Streptomycin mixture (BioWhittaker/Lonza, DE17-602E) unless stated otherwise. Primary lung circulating tumor cells (Celprogen, 36107-34CTC, Lot 219411) were grown using stem cell complete media (Celprogen, M36102-29PS) until the third passage. Circulating cancer cells were grown in stem cell ECM T75-flasks (Celprogen, E36102-29-T75) and ECM 6-well plates (Celprogen, E36102-29-6Well). HMLER cells ([…]) naturally repressing E-cadherin, obtained from human mammary epithelial cells infected with a retrovirus carrying hTERT, SV40 and the oncogenic allele H-rasV12, and HMLER CD44 and TFRC ko clones were cultured in DMEM/F12 (Thermo Fisher Scientific, 31331093) supplemented with 10% FBS (Thermo Fisher Scientific, 10270106), 10 μg/mL insulin (Sigma-Aldrich, 10516), 0.5 μg/mL hydrocortisone (Sigma-Aldrich, H0888) and 0.5 μg/mL puromycin (Life Technologies, A11138-02), unless stated otherwise. HMLER CD44^high cells were also supplemented with 10 ng/mL EGF (Miltenyi Biotech, 130-097-750).

[2] = Copper-catalyzed oxidation of NADH by H2O2 (cell-free); type: biochemical; settings: H2O2 present; FIG. 3C
Protocol: Copper-catalyzed oxidation of NADH. The oxidation kinetics of NADH (N4505, Sigma-Aldrich) was followed by measurement of absorbance at 340 nm using a NanoDrop 2000. Measurements were performed at 26° C. A 10 mM sodium phosphate buffer adjusted to pH=7.2 was used as solvent. Each 500 μL mixture were prepared with NADH (400 μM), imidazole (56750, Sigma-Aldrich, 10 mM), CuSO4 (451657, Sigma-Aldrich, 4 μM), LCC/K2CO3 solution (1:1) (4 μM or 400 μM), metformin/K2CO3 solution (2:1) (J63361, Alfa Aesar, 800 μM), as indicated, and a H2O2 solution (16911, Sigma-Aldrich, 2 mM from an aq. solution 25-35% in H2O2) added at the reaction start time. The concentration of NADH was calculated from the measured absorbance at 340 nm and a molar extinction coefficient of […] L mol^−1 cm^−1.

[3] = Maximum tolerated dose; settings: stated relative to the 0.3 mg/kg/day dose used
[4] = tested on: dendritic cells; assay: Activation of dendritic cells (CD40, CD83, CD80, CD86 flow cytometry); type: cell-based, human; settings: LCC-12 10 μM, 24 h, LPS; FIG. 6E
Protocol: Dendritic cells. Peripheral blood samples were collected from healthy donors (Etablissement Français du Sang). Pan monocytes were isolated by negative magnetic sorting using microbeads according to the manufacturer's instructions (Miltenyi Biotec, 130-096-537), and cultured in RPMI 1640 supplemented with glutamine, 10% fetal bovine serum and treated with granulocyte-macrophage colony-stimulating factor (GM-CSF, 100 ng/mL) and IL-4 (10 ng/mL) to induce differentiation into dendritic cells (DC). At day 5 of differentiation, DC were treated with lipopolysaccharides (LPS, 100 ng/mL, 24 h) to generate activated DC and were co-treated with LCC-12 (in-house, 10 μM, 24 h). The activation status of the dendritic cells was assessed by measuring CD40, CD83, CD80 and CD86 surface markers by flow cytometry.

[5] = tested on: U937 cells; assay: Cell viability assay (CellTiter-Blue) on lymphoma cell line U937; type: cell-based; settings: Homo sapiens, U-937, 72 h treatment
Protocol: Cell culture. U-937 cells were grown in an incubator equilibrated at 37° C. with 5% CO2, grown to confluence and split with Trypsin/EDTA (Gibco, […]01) once or twice a week according to confluence. U-937 (ATCC, HTB-132) were cultured in RPMI 1640 GLUTAMAX (ThermoFisher Scientific, 61870044) supplemented with 10% Fetal Bovine Serum (FBS, Gibco, 10270-106) and Penicillin-Streptomycin mixture (BioWhittaker/Lonza, DE17-602E). […] Peripheral blood samples were collected from distinct healthy donors (Etablissement Français du Sang). Pan monocytes were isolated by negative magnetic sorting using microbeads according to the manufacturer's instructions (Miltenyi Biotec, 130-096-537), and cultured in RPMI 1640 supplemented with glutamine (Thermo Fisher Scientific, 61870010), 10% fetal bovine serum and exposed to granulocyte-macrophage colony-stimulating factor (GM-CSF, Miltenyi Biotec, 130-093-866, 100 ng/mL) to induce differentiation into macrophages (MDM). […] Cell viability assay (IC50). Cell viability assay was carried out by plating 1000 cells/well in 96-well plates. Cells were treated for 72 h in a range between to 25 nM and […] using serial dilutions. The inventors followed the manufacturer's protocol. In brief, CellTiter-Blue® reagent (G8081, Promega) was added after 72 h treatment and cells were incubated for 3 h before recording fluorescence intensities (λex. 560/20 nm; λem. 590/10 nm) using a Perkin Elmer Wallac 1420 Victor2 Microplate Reader.

[6] = tested on: MCF7, FC1242 and DU-145 cells; assay: Cell viability in epithelial versus mesenchymal state (TGF-β or OSM induced EMT); type: cell-based, human, mouse; settings: EMT induced with TGF-β or OSM; FIG. 7
Protocol: as §1
Cell culture. MCF7 (ATCC) cells, DU-145 (ATCC) cells and FC1245 cells were cultured in Dulbecco's Modified Eagle Medium GlutaMAX (DMEM, ThermoFisher Scientific, 61965059) supplemented with 10% Fetal Bovine Serum (FBS, Gibco, 10270-106) and Penicillin-Streptomycin mixture (BioWhittaker/Lonza, DE17-602E) unless stated otherwise. Primary lung circulating tumor cells (Celprogen, 36107-34CTC, Lot 219411) were grown using stem cell complete media (Celprogen, M36102-29PS) until the third passage. Circulating cancer cells were grown in stem cell ECM T75-flasks (Celprogen, E36102-29-T75) and ECM 6-well plates (Celprogen, E36102-29-6Well). […]

N=C(N)NC(=N)NCCCCCCCCCCCCNC(=N)NC(=N)N [LCC-12, lipophilic copper clamp C12]
improved IC50 compared with metformin ([1]; HMLER CD44high/CD24low): more than 2800 fold
IC50 ([1]; Homo sapiens, cell viability, 72 h treatment, read-out: IC50 against HMLER CD44^high/CD24^low): 8 µM
rate of NADH oxidation catalyzed by copper(II) [2]: more pronounced effect
maximum tolerated dose (MTD) [3]: 0.3 mg/kg/day, a dose 10 times lower than the maximum tolerated dose
activation of dendritic cells [4]: decreases the activation
IC50 [5]: 2 µM
IC50-values in mesenchymal state compared to epithelial counterpart [6]: lower IC50-values in cells in the mesenchymal state compared to the epithelial counterpart
